# Columns and labels:
# [1] = test system: Mus musculus; experiment: Antiinflammatory activity against IL-10-/- C57BL/6 mouse model of ulcerative colitis assessed as inhibition ratio of IL-1beta mRNA expression in colon tissue at 3 mg/kg, IG via gavage and measured after 8 weeks by RT-qPCR analysis relative to control; type: functional; set-up: scale not given: the % may be the effect or the level left
# [2] = test system: Mus musculus; experiment: Anti-ulcerative colitis activity in IL-10-/- C57BL/6 mouse model of ulcerative colitis assessed as histopathological score recovery ratio at 3 mg/kg, IG via gavage for 8 weeks relative to control; type: functional
# [3] = test system: Mus musculus; experiment: Inhibition of MKK3-p38 MAPK-elF4E signaling pathway in C57BL/6 mouse model of acute ulcerative colitis assessed as decrease in DSS-induced Mnk1 phosphorylation in colon tissue administered intragastrically via gavage measured after 7 days by Western blot analysis; conditions: dose 1-50 mg/kg, time 7.0 day, DDE = dose-dependent effect
# [4] = test system: Mus musculus; experiment: Anti-ulcerative colitis activity in IL-10-/- C57BL/6 mouse model of ulcerative colitis assessed as histopathological score recovery ratio at 10 mg/kg, IG via gavage for 8 weeks relative to control; type: functional
# [5] = target: T1, Dual specificity mitogen-activated protein kinase kinase 3 (Homo sapiens, UniProt P46734); experiment: Binding affinity to CM5 chip immobilized human MKK3 (20 to 347 residues) expressed in Escherichia coli BL21 (DE3) assessed as dissociation constants, KD by surface plasmon resonance analysis
# T1 sequence (P46734 whole entry): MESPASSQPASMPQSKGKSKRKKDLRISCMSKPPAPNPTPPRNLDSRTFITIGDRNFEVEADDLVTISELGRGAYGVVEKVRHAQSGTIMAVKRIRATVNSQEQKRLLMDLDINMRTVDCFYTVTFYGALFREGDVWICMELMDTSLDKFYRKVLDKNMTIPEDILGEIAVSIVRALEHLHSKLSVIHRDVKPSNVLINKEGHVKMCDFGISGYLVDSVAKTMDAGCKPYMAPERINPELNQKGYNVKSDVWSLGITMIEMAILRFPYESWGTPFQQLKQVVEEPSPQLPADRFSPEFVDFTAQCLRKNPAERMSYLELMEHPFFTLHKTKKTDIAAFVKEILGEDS
# [6] = test system: Mus musculus; experiment: Antiinflammatory activity against DSS-induced C57BL/6 mouse model of acute ulcerative colitis assessed as inhibition ratio of IL-23 mRNA expression in colon tissue at 10 mg/kg, IG via gavage measured after 7 days by RT-qPCR analysis relative to control; type: functional; set-up: scale not given: the % may be the effect or the level left; conditions: time 7 day
# [7] = test system: Mus musculus; experiment: Anti-ulcerative colitis activity in DSS-induced C57BL/6 mouse ulcerative colitis model assessed as histopathological score recovery ratio at 3 mg/kg, IG via gavage measured after 7 days by H and E staining method relative to control; type: functional; conditions: time 7 day
# [8] = test system: Mus musculus; experiment: Antiinflammatory activity against DSS-induced C57BL/6 mouse model of acute ulcerative colitis assessed as inhibition ratio of IL-1beta mRNA expression in colon tissue at 1 mg/kg, IG via gavage measured after 7 days by RT-qPCR analysis relative to control; type: functional; set-up: scale not given: the % may be the effect or the level left; conditions: time 7 day
# [9] = test system: Mus musculus; experiment: Antiinflammatory activity against DSS-induced C57BL/6 mouse model of acute ulcerative colitis assessed as inhibition ratio of IL-6 protein expression at 10 mg/kg, IG via gavage measured after 7 days by ELISA relative to control; type: functional; set-up: scale not given: the % may be the effect or the level left; conditions: time 7 day
# [10] = Bioavailability in 12 hr starved C57 mouse […] measured for 0.083 to 24 hrs post-dose by LC-MS-MS analysis; type: ADME, organism-based; conditions: in vivo, time 0.083-24 hrs
# [11] = test system: Mus musculus; experiment: Inhibition of MKK3-p38 MAPK-elF4E signaling pathway in C57BL/6 mouse model of acute ulcerative colitis assessed as decrease in DSS-induced elF4E phosphorylation in colon tissue administered intragastrically via gavage measured after 7 days by Western blot analysis; conditions: dose 1-50 mg/kg, time 7.0 day, DDE = dose-dependent effect
# [12] = test system: Mus musculus; experiment: Antiinflammatory activity against DSS-induced C57BL/6 mouse model of acute ulcerative colitis assessed as inhibition ratio of TNF-alpha protein expression at 3 mg/kg, IG via gavage measured after 7 days by ELISA relative to control; type: functional; set-up: scale not given: the % may be the effect or the level left; conditions: time 7 day
# [13] = Metabolic stability in dog liver microsomes assessed as intrinsic clearance at […] measured upto 60 mins in presence of NADPH by HPLC-MS analysis; type: ADME, Canis lupus familiaris, Microsome; set-up: dose or concentration left out as unconfirmed; conditions: 1 h
# [14] = target: T2, Mitogen-activated protein kinase kinase kinase 7 (Homo sapiens) (UniProt O43318); experiment: Inhibition of human TAK1 at 50 uM using casein as substrate incubated for 40 mins in presence of [gamma-33P]-ATP by scintillation counting method relative to control
# T2 sequence (whole entry): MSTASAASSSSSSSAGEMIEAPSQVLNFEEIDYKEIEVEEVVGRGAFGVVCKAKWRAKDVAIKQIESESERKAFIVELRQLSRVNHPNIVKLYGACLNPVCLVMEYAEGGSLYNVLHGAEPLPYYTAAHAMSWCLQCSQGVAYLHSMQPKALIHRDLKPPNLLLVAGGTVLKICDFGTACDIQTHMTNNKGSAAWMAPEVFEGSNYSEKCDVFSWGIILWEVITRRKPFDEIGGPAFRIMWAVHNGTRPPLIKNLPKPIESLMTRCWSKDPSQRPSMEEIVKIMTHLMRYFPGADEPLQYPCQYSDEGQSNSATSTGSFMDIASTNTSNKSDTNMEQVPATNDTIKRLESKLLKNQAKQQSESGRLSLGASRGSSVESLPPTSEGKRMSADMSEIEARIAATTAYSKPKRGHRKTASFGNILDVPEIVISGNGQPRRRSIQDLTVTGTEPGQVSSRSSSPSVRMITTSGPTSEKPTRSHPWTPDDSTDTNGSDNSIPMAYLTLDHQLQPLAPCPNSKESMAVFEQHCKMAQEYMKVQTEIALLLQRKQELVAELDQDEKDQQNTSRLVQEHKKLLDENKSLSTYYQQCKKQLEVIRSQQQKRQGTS
# [15] = test system: Mus musculus; experiment: Anti-ulcerative colitis activity in IL-10-/- C57BL/6 mouse model of ulcerative colitis assessed as colon length recovery ratio at 1 mg/kg, IG via gavage for 8 weeks relative to control; type: functional
# [16] = Mutagenicity in Salmonella typhimurium by Ames test; type: toxicity; conditions: salmonella enterica subsp. enterica serovar typhimurium
# [17] = test system: Mus musculus; experiment: Anti-ulcerative colitis activity in DSS-induced C57BL/6 mouse ulcerative colitis model assessed as colon length recovery ratio at 1 mg/kg, IG via gavage measured after 7 days relative to control; type: functional; conditions: time 7 day
# [18] = test system: Mus musculus; experiment: Antiinflammatory activity against IL-10-/- C57BL/6 mouse model of ulcerative colitis assessed as inhibition ratio of IL-6 mRNA expression in colon tissue at 1 mg/kg, IG via gavage and measured after 8 weeks by RT-qPCR analysis relative to control; type: functional; set-up: scale not given: the % may be the effect or the level left
# [19] = test system: Mus musculus; experiment: Antiinflammatory activity against DSS-induced C57BL/6 mouse model of acute ulcerative colitis assessed as reduction in serum IL-6 levels administered intragastrically via gavage measured after 7 days by ELISA; type: functional, organism-based; conditions: dose 1-10 mg/kg, route ig, time 7.0 day, DDE = dose-dependent effect
# [20] = test system: Mus musculus; experiment: Antiinflammatory activity against DSS-induced C57BL/6 mouse model of acute ulcerative colitis assessed as inhibition ratio of IL-6 mRNA expression in colon tissue at 10 mg/kg, IG via gavage measured after 7 days by RT-qPCR analysis relative to control; type: functional; set-up: scale not given: the % may be the effect or the level left; conditions: time 7 day
compound,measurement,setting,value
COc1ccc([C@H]2CC(=O)c3cc(OC)cc(OC)c32)cc1,Activity,[1],36.1%
same,Activity,[2],50.5%
same,inhibition,[3],Dde
same,Activity,[4],56.7%
same,Kd,[5],71 nM
same,Activity,[6],90.5%
same,Activity,[7],41.7%
same,Activity,[8],70.1%
same,Activity,[9],56.1%
same,bioavailability,[10],33%
same,inhibition,[11],Dde
same,Activity,[12],55.9%
same,CLH,[13],121.4 mL/min/g
same,inhibition,[14],< 10%
same,Activity,[15],17.7%
same,Activity,[16],Non-Toxic
same,Activity,[17],33.3%
same,Activity,[18],26.3%
same,Activity,[19],Dde
same,Activity,[20],76%
